Reference: PMC6017931, “A Novel Class of Schistosoma mansoni Histone Deacetylase 8 (HDAC8) Inhibitors Identified by Structure-Based Virtual Screening and In Vitro Testing” (Molecules : A Journal of Synthetic Chemistry and Natural …, 2018)

How the values were obtained:
[1] = biological target: T1, smHDAC8 (Schistosoma mansoni, UniProt A5H660); test: smHDAC8 in vitro inhibition assay; type: biochemical; settings: for IC50: mean ± S.E., Fluor de Lys-HDAC8 substrate 50 µM, 90 min at 37 °C
T1 construct: made in house; host or cells: E. coli
T1 sequence (A5H660 1-440): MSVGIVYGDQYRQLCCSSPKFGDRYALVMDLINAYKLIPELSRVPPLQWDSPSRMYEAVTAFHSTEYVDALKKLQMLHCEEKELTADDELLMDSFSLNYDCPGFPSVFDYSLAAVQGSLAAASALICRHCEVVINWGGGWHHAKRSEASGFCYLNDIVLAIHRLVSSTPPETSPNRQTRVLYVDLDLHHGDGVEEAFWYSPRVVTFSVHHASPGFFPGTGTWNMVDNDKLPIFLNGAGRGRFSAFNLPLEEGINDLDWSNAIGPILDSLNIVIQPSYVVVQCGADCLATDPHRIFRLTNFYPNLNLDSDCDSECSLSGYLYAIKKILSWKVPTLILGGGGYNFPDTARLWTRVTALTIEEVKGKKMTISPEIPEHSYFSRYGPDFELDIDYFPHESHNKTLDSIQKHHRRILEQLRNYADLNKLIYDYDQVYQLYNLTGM
Description: The biological assay was carried out using purified smHDAC8 protein and the small molecule substrate Z(Tfa)Lys-AMC (ZMTFAL) as previously reported. To assess the selectivity, the selected compounds were further tested against the human orthologue hsHDAC8 as well as the major human HDAC isoforms (HDAC1 and -6) using an established in vitro assay.
Recombinant human HDAC1 and HDAC6 were purchased from BPS Bioscience. Recombinant human HDAC8 was expressed and purified as previously described. Recombinant smHDAC8 enzyme was produced in E. coli cells and purified by a method previously described by us. Inhibition assays of smHDAC8 and human HDACs were performed as already described in previous publications. Briefly, the commercial Fluor de Lys kit (BML-KI178) was used for testing inhibition of smHDAC8 and hsHDAC8. Test compounds, Fluor de Lys-HDAC8 substrate (50 µM) and enzyme were incubated for 90 min at 37 °C with subsequent addition of 50 μL Developer II (BML-KI176) and further incubation for 45 min at 30 °C. Fluorescence was measured in a plate reader (BMG Polarstar) with excitation at λ = 390 nm and emission at λ = 460 nm. Inhibition tests of human HDAC1 and 6 were conducted using ZMAL (Cbz-(Ac)Lys-AMC) as substrate and trypsin as a developer. […] Trichostatin A (2 µM) was used in both assays to stop the reaction. Fluorescence was measured similarly as mentioned above. IC50 values were determined with OriginPro (version 9.0.0, Northampton, MA, USA). IC50 Values in Table 1 are given as mean ± S.E.

[2] = biological target: T2, hsHDAC8 (Homo sapiens, UniProt Q9BY41); test: hsHDAC8 in vitro inhibition assay; type: biochemical; settings: mean ± S.E.; Fluor de Lys-HDAC8 substrate 50 µM, 90 min at 37 °C
T2 construct: made in house
T2 sequence (Q9BY41 1-377): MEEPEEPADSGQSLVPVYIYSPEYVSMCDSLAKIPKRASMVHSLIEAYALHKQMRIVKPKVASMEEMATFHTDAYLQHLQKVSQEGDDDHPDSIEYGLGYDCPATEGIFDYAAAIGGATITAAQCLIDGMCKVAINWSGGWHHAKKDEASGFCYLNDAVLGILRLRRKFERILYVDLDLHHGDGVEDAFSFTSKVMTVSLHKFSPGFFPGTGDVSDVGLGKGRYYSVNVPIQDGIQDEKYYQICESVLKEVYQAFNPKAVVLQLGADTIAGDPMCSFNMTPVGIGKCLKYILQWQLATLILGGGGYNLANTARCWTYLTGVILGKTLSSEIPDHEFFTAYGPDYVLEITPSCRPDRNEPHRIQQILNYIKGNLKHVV
Description: (§1) The biological assay was carried out using purified smHDAC8 protein and the small molecule substrate Z(Tfa)Lys-AMC (ZMTFAL) as previously reported. To assess the selectivity, the selected compounds were further tested against the human orthologue hsHDAC8 as well as the major human HDAC isoforms (HDAC1 and -6) using an established in vitro assay. […] Recombinant human HDAC1 and HDAC6 were purchased from BPS Bioscience. Recombinant human HDAC8 was expressed and purified as previously described. Recombinant smHDAC8 enzyme was produced in E. coli cells and purified by a method previously described by us. Inhibition assays of smHDAC8 and human HDACs were performed as already described in previous publications. Briefly, the commercial Fluor de Lys kit (BML-KI178) was used for testing inhibition of smHDAC8 and hsHDAC8. Test compounds, Fluor de Lys-HDAC8 substrate (50 µM) and enzyme were incubated for 90 min at 37 °C with subsequent addition of 50 μL Developer II (BML-KI176) and further incubation for 45 min at 30 °C. Fluorescence was measured in a plate reader (BMG Polarstar) with excitation at λ = 390 nm and emission at λ = 460 nm. Inhibition tests of human HDAC1 and 6 were conducted using ZMAL (Cbz-(Ac)Lys-AMC) as substrate and trypsin as a developer. […] Trichostatin A (2 µM) was used in both assays to stop the reaction. Fluorescence was measured similarly as mentioned above. IC50 values were determined with OriginPro (version 9.0.0, Northampton, MA, USA). IC50 Values in Table 1 are given as mean ± S.E.

[3] = biological target: T3, hsHDAC1 (Homo sapiens, UniProt Q13547); test: hsHDAC1 in vitro inhibition assay; type: biochemical; settings: mean ± S.E.; ZMAL 10.5 µM, 90 min at 37 °C
T3 construct: purchased BPS Bioscience
T3 sequence (Q13547 whole entry): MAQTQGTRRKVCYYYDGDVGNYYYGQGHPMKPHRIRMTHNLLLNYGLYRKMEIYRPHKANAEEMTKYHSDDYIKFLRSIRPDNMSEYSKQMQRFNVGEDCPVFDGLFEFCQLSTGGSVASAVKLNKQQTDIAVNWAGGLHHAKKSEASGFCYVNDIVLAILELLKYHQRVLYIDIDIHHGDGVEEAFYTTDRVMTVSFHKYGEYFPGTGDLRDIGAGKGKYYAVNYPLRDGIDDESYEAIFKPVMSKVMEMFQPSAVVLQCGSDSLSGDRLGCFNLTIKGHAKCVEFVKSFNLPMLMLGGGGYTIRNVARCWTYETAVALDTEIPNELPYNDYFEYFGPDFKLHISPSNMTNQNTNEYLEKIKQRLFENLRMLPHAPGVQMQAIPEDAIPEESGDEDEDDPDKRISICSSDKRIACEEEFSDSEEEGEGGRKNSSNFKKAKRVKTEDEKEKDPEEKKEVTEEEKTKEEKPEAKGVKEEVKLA
Description: as §1

[4] = biological target: T4, hsHDAC6 (Homo sapiens, UniProt Q9UBN7); test: hsHDAC6 in vitro inhibition assay; type: biochemical; settings: for IC50: mean ± S.E., ZMAL 10.5 µM, 90 min at 37 °C
T4 construct: purchased BPS Bioscience
T4 sequence (Q9UBN7 1-1215): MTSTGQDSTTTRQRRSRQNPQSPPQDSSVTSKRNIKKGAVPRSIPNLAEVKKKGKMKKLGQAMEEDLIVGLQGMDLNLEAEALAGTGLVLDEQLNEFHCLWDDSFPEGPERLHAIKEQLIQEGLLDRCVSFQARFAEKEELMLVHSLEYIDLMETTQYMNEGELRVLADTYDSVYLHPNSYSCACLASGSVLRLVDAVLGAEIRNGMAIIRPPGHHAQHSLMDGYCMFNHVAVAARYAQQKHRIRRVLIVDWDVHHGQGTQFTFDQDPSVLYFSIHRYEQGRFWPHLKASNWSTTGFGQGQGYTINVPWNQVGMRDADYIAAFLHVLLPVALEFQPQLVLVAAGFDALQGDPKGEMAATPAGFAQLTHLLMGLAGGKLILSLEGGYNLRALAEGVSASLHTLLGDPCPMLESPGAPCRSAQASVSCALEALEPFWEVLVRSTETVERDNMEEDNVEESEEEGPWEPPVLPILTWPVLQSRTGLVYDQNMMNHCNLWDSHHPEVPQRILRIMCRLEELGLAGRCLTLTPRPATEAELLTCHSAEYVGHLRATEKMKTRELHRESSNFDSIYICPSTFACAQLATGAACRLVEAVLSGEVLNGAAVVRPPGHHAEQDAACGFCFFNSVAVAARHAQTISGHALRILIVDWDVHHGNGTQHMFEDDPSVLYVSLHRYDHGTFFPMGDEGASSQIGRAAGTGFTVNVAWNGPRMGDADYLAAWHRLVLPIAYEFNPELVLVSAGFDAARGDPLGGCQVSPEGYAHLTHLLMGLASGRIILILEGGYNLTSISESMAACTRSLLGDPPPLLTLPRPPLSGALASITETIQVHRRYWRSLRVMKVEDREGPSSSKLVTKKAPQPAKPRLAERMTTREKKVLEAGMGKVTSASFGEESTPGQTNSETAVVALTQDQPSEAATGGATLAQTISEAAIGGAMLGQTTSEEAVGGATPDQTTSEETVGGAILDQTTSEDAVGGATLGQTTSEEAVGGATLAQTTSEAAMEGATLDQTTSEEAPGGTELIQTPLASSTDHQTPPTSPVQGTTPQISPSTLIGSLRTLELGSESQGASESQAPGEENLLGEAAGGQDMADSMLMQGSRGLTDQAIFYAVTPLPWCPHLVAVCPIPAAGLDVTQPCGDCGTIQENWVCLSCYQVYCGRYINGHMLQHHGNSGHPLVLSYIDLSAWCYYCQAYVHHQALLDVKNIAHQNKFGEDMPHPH
Description: as §1

[5] = tested on: S. mansoni schistosomula; set-up: method as in PMID 24086136; settings: at 100 µM; cited from earlier work
[6] = tested on: S. mansoni schistosomula; test: Apoptosis induction in schistosomula (TUNEL); type: cell-based, Schistosoma mansoni; settings: 100 µM, after 3 days
Description: The compound J1036 induced dose-dependent apoptosis in the infective larval stage (schistosomula) of S. mansoni, affecting 67% of the larvae after 3 days at a dose of 100 µM (Figure 4), whereas a polar hydroxamate derivative (J1038) identified by a previous virtual screening was ineffective in the same assay (data not shown here). […]. Although we cannot directly correlate the inhibitory activity on smHDAC8 with the lethal effect of J1036 on schistosomula, the high level of expression of this class I HDAC [21] in the parasite, and its validation as a stand-alone target by transcript knockdown, mean that its inhibition is sufficient to induce the effects observed.
Figure 4 J1036 induces apoptosis in S. mansoni schistosomula in vitro. (A) Dose-dependent induction of apoptosis determined by dUTP nick end labeling (TUNEL) shown as the percentage of parasites positively labeled; (B) TUNEL staining of schistosomula treated with 100 µM J1036 for 3 days. Parasites were counterstained using 4′,6-Diamidino-2-Phenylindole (DAPI).
The capacity of compounds J1036 and J1038 to induce apoptosis in S. mansoni schistosomula was measured using dUTP nick end labelling (TUNEL) and the In Situ Cell Death Detection Kit TMR (Roche Applied Science, Penzberg, Germany) exactly as previously described.

| SMILES | IC50 [1] [µM] | IC50 [2] [µM] | IC50 [3] [µM] | IC50 [4] [µM] | apoptosis, percentage of larvae affected [5] [%] | inhibitory activity against HDAC6 (in words) [4] | apoptosis, percentage of larvae affected (TUNEL positive) [6] [%] | inhibition at 25 µM ([1]; at 25 µM) [%] |
| --- | --- | --- | --- | --- | --- | --- | --- | --- |
| CCCCCCC(=O)N(O)C1CC(=O)N(c2ccc(C)cc2)C1=O (stereo not shown) [J1065] | 20.2 ± 2.7 | 3.96 ± 0.6 | 8.4 ± 0.28 | 1.57 ± 0.37 | – | – | – | – |
| O=C(NO)c1sc2ccccc2c1Cl [J1075] | – | – | – | – | 54 | – | – | – |
| COc1ccc(C(=O)NO)cc1NC(=O)c1ccc(-c2ccccc2)cc1 [TH65, reference compound] | 0.075 ± 0.025 | 0.026 ± 0.017 | 6.3 ± 2.1 | 0.39 ± 0.002 | – | – | – | – |
| CCCCCCC(=O)N(O)C1CC(=O)N(c2ccc(Cl)cc2)C1=O (stereo not shown) [J1061] | 5.5 ± 0.7 | 7.69 ± 3.3 | 3.98 ± 0.45 | 2.65 ± 0.29 | – | – | – | – |
| CCCCCCC(=O)N(O)C1CC(=O)N(c2ccc(Br)cc2)C1=O (stereo not shown) [J1063] | 5.9 ± 1.6 | 7.72 ± 4.42 | 1.42 ± 0.13 | 0.77 ± 0.09 | – | submicromolar | – | – |
| CCCCCC(=O)N(O)C1CC(=O)N(c2ccc(Cl)cc2)C1=O (stereo not shown) [J1036] | 4.4 ± 0.17 | 0.49 ± 0.18 | 6.76 ± 0.97 | 5.02 ± 0.31 | – | – | 67 | – |
| CCCCCCC(=O)N(O)C1CC(=O)N(c2ccccc2)C1=O (stereo not shown) [J1060] | 11.5 ± 0.91 | 1.8 ± 0.24 | 5 ± 0.42 | 0.86 ± 0.12 | – | submicromolar | – | – |
| CCCCCC(=O)N(O)C1CC(=O)N(c2ccccc2)C1=O (stereo not shown) [J1058] | 20.3 ± 2.78 | 3.99 ± 0.74 | 26 ± 2.4 | 6.2 ± 0.41 | – | – | – | – |
| CCCCCCC(=O)N(O)C1CC(=O)N(c2ccc(F)cc2)C1=O (stereo not shown) [J1064] | 7.79 ± 0.28 | 2.08 ± 0.34 | 4.3 ± 0.46 | 0.6 ± 0.12 | – | submicromolar | – | – |
| CCCCC(=O)N(O)C1CC(=O)N(c2ccccc2)C1=O (stereo not shown) [J1057] | 13.2 ± 1.85 | 2.62 ± 0.19 | 42.1 ± 2.2 | 6.2 ± 0.34 | – | – | – | – |
| CCCCCCC(=O)N(O)C1CC(=O)N(c2cccc(Cl)c2C)C1=O (stereo not shown) [J1066] | – | – | – | – | – | – | – | 13 |
| O=C(CCCCCCC(=O)Nc1ccccc1)NO [SAHA] | – | – | – | – | 43 | – | – | – |
